Reference: ChEMBL document CHEMBL1148933, “Tetradehydrohalicyclamine A and 22-hydroxyhalicyclamine A, new cytotoxic bis-piperidine alkaloids from a marine sponge Amphimedon sp” (J Nat Prod, 2004)

Tested on: P388
Assay: Cytotoxicity against mouse P388 cells
Assay type: functional, cell-based

C1=C\CCCCCC[C@@H]2CN3CC/C=C/C=C\CCCCc4cc(c[n+](c4)CC\C=C/1)[C@@H]2CC3.O=C(O)C(F)(F)F.O=C([O-])C(F)(F)F [TETRADEHYDROHALICYCLAMINE A]
IC50: 2.2 µg/mL

C1=C2CCCC/C=C\C=C\CCN3CC[C@@H]4[C@H](CCCCCC/C=C\C=C/CCN(C2)C[C@H]14)C3.O=C(O)C(F)(F)F.O=C(O)C(F)(F)F [HALICYCLAMINE A TFA]
IC50: 0.45 µg/mL
